Laboratory results published in patent US10865201B2, “Bicyclic compounds useful as GPR120 modulators” (Valo Health, Inc., priority 2016, dated 2020).

Assays:
[1] = molecular target: T1, human GPR120 (Homo sapiens, UniProt Q5NUL3); assay: Human GPR120 β-Arrestin Recruitment Assay; type: cell-based; details: CHO-K1 cells co-expressing ProLink-tagged human GPR120 and β-Arrestin 2/β-gal fusion; PathHunter; 90 minutes at 37° C.; read-out: β-Arr pEC50 (converted)
T1 construct: host or cells: CHO-K1
From the text: This in vitro assay tests compounds' ability to activate intracellular signaling via β-Arrestin recruitment to heterologously expressed human GPR120. This functional cellular assay utilizes enzyme fragment complementation with β-galactosidase (β-gal) as a functional reporter (DiscoveRx PathHunter® β-Arrestin assay platform). The human GPR120 receptor (GenBank accession Number NM_181745) was fused in frame with the small enzyme fragment ProLink™ and co-expressed in CHO-K1 cells with a fusion protein of β-Arrestin 2 and the larger, N-terminal deletion mutant of β-gal. Activation by a GPR120 agonist stimulates binding of β-arrestin to the ProLink-tagged GPCR and forces complementation of the two enzyme fragments, resulting in the formation of an active β-gal enzyme. This interaction leads to an increase in enzyme activity that can be measured using chemiluminescent PathHunter® Detection Reagents.
One day prior to the assay, cells were seeded in a total volume of 20 μl of growth medium into white walled 384-well microplates and incubated at 37° C./5% CO2 overnight. On the day of the assay, growth medium was removed and 20 μl assay buffer (HBSS+10 mM HEPES+0.1% heat-inactivated BSA) were added to each well.
Test compounds were dissolved in 100% DMSO to a concentration of 10 mM to provide stock solutions. Serial dilutions were performed from stock solutions into assay buffer to obtain intermediate concentrations of 5-fold higher than the concentrations to be tested. 5 μl of the 5x compound solutions were added to the cells and the assay plates were incubated alt 37° C. for 90 minutes, The final concentration of compounds tested in the assay ranged from 1.5 nM to 100 μM. Following incubation, 12.5 μl of PathHunter® detection reagent were added to each well, and plates were incubated at room temperature for 60 minutes. Chemiluminescence was read using an EnVision plate reader (PerkinElmer), raw data were expressed as relative light units (RLU).
(§1) To determine agonist potencies (EC50 values), non-linear least-squares curve fits of the raw data (RLU) were performed in the GraphPad Prism software package, using the 4-parameter model with variable Hill Slope:
Reported below in Table 1 are pEC50 values (pEC50=−log(EC50) from curve fit) for compounds of Formula I in this assay, β-Arr pEC50.
T1 sequence (Q5NUL3 1-377 isoform Q5NUL3-1): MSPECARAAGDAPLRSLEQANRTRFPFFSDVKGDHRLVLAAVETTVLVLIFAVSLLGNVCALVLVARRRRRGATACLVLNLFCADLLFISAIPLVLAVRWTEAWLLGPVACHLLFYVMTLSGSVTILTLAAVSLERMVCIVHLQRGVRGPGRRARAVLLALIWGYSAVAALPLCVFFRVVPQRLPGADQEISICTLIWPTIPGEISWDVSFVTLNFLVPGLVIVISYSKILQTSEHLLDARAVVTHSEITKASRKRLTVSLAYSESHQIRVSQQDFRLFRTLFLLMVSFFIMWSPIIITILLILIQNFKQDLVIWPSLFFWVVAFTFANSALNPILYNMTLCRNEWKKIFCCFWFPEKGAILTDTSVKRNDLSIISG
T1 sequence (P32121 whole entry partner, the tested form may be a part): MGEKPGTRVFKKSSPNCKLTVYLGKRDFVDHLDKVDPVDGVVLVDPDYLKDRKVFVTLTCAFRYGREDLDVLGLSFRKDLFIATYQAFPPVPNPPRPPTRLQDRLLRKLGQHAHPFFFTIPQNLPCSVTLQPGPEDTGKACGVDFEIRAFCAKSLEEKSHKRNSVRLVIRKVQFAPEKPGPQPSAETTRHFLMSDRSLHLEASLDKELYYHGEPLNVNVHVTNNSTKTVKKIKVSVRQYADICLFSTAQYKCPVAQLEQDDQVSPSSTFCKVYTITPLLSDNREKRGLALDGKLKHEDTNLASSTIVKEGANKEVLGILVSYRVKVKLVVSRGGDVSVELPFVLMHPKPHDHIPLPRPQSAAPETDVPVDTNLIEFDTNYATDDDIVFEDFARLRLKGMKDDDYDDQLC

[2] = molecular target: T2, human GPR120 (Homo sapiens, UniProt Q5NUL3); assay: Human GPR120 Calcium-Release Assay; type: cell-based; details: short variant of human GPR120 in CHO-K1 cells coexpressing Gα16 and mitochondrial apoaequorin; luminescence; read-out: Ca2+ pEC50 (converted)
T2 construct: expressed in transfected cells; host or cells: CHO-K1 coexpressing Gα16 and mitochondrial apoaequorin
T2 sequence (Q5NUL3 1-361): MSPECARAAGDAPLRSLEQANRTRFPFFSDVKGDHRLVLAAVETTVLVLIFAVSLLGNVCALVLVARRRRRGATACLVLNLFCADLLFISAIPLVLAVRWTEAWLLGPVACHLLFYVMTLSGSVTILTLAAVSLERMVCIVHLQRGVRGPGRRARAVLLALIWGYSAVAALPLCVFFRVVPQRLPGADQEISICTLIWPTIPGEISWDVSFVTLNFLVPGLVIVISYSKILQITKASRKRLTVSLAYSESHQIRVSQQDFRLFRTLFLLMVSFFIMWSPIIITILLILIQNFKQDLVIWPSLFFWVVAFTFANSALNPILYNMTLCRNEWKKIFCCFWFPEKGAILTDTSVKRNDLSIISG
From the text: This in vitro assay tests compounds' ability to activate heterologously expressed human GPR120 via G-protein coupling leading to generation of inositol 1,4,5-triphosphate and mobilization of intracellular calcium. This functional cellular assay is based on the luminescence of mitochondrial aequorin following intracellular Ca^2+ release. Aequorin is a photoprotein isolated from the jellyfish Aequorea victoria. The active protein is formed in the presence of molecular oxygen from apoaequorin and its cofactor coelenterazine. Binding of Ca^2+ to the active protein induces a conformational change, resulting in oxidation of coelenterazine and subsequent blue luminescence.
The short variant of the human GPR120 receptor (GenBank accession Number AAI01176) was stably expressed in a CHO-K1 cell line coexpressing Gα16 and mitochondrial apoaequorin.
Cells were grown to mid-log phase in culture media without antibiotics, were detached with PBS/EDTA, centrifuged and resuspended in assay buffer (DMEM-F12 medium with 15 mM HEPES pH 7.0 and 0.1% protease free BSA) at a concentration of 10^6 cells/mL. Cells were incubated at room temperature for at least 4 hours with 5 μM coelenterazine h.
Test compounds were dissolved in 100% DMSO to a concentration of 20 mM to provide stock solutions. Serial dilutions were performed from stock solutions in 100% DMSO to obtain intermediate concentrations 200-fold higher than the concentrations to be tested. Each sample was diluted 100-fold into assay buffer. 50 μl of these compound solutions were dispensed into each well of 96-well assay plates. The final concentration of compounds tested in the assay ranged from 5 nM to 100 μM. α-Linolenic acid was used as a reference compound. Each test was performed in duplicate.
To start the assay, 50 μl of cell suspension were added to each well of the assay plate. The resulting luminescence was recorded using a Hamamatsu Functional Drug Screening System 6000 (FDSS 6000), and raw data were expressed as relative light units (RLU).
as §1
Reported below in Table 1 are pEC50 values (pEC50=−log(EC50) from curve fit) for representative compounds of Formula I in this assay, Ca2+pEC50.

Structure (SMILES) | EC50 [1] [µM] | EC50 [2] [µM]
O=S1(=O)c2ccc(Oc3cccnc3)cc2CN1Cc1ccc(Cl)cc1 [Compound 10] | 3.16 | 2.51
O=S1(=O)c2ccc(Oc3ccc(Cl)cc3)cc2CN1Cc1ccccc1 [Compound 4] | 0.251 | 7.94
O=S1(=O)c2ccc(Oc3cccnc3)cc2CN1c1cc(OC(F)(F)F)ccc1Cl [Compound 41] | > 31.6 | 
O=S1(=O)c2ccc(Oc3cccnc3)cc2CN1C1CCC1 [Compound 44] | 12.6 | 
O=S1(=O)c2ccc(Oc3cccnc3)cc2CN1c1ccccn1 [Compound 34] | 15.8 | 10
O=S1(=O)c2ccc(OC3CCC3)cc2CN1Cc1ccccc1 [Compound 15] | 0.501 | 0.794
O=S1(=O)c2ccc(Oc3cccnc3)cc2CN1Cc1cc(OC(F)(F)F)ccc1Cl [Compound 16] | 3.16 | 
O=S1(=O)c2ccc(Oc3cccnc3)cc2CN1Cc1cccc(Cl)c1 [Compound 9] | 1.26 | 1.58
O=C(O)c1cccc(N2Cc3cc(Oc4cccnc4)ccc3S2(=O)=O)c1 [Compound 36] | > 10 | 
O=S1(=O)c2ccc(Oc3cccc(Cl)c3)cc2CN1c1ccccc1 [Compound 28] | 0.794 | 39.8
O=S1(=O)c2ccc(Oc3cccnc3)cc2CN1CCc1ccccc1 [Compound 17] | > 10 | 
O=S1(=O)c2ccc(Oc3ccc(Cl)cc3)cc2CN1c1ccccc1 [Compound 37] | > 10 | 
O=S1(=O)c2ccc(OCc3cccnc3)cc2CN1c1ccccc1 [Compound 40] | > 31.6 | 
O=C1c2ccc(Oc3cccnc3)cc2CN1c1ccccc1 [Compound 45] | > 10 | 
Cc1cc(Oc2cccnc2)cc2c1S(=O)(=O)N(Cc1ccccc1)C2 [Compound 23] | 2 | 
O=S1(=O)c2ccc(Oc3cccnc3)cc2CN1Cc1cccnc1 [Compound 19] | 7.94 | 15.8
O=S1(=O)c2ccc(Oc3cccnc3)cc2CN1c1cccc(OC(F)(F)F)c1 [Compound 33] | 5.01 | 
O=S1(=O)c2ccc(Oc3cccnc3)cc2CN1c1cccnc1 [Compound 31] | > 10 | 
O=S1(=O)c2ccc(Oc3ccccc3)cc2CN1Cc1ccccc1 [Compound 2] | 0.501 | 1
CN1Cc2cc(Oc3cccnc3)ccc2S1(=O)=O [Compound 12] | > 31.6 | 
O=S1(=O)c2ccc(Oc3ccc(Cl)c(Cl)c3)cc2CN1c1ccccc1 [Compound 29] | > 31.6 | > 100

Structure (SMILES) | EC50 [1] [µM] | EC50 [2] [µM]
O=S1(=O)c2ccc(OCc3ccccc3)cc2CN1c1ccccc1 [Compound 38] | 5.01 | 
O=S1(=O)c2ccc(Oc3cccnc3)cc2CN1c1ccccc1 [Compound 24] | 7.94 | 2.51
O=S1(=O)c2ccc(OC3CCC3)cc2CN1c1ccccc1 [Compound 30] | 2.51 | > 100
O=S1(=O)c2ccc(Oc3cccnc3)cc2CN1Cc1ccccc1Cl [Compound 8] | 6.31 | 
O=S1(=O)c2ccc(Oc3cccnc3)cc2CN1Cc1ccc(Cl)cc1Cl [Compound 11] | 7.94 | 3.98
O=S1(=O)c2ccc(OC3CC(F)(F)C3)cc2CN1Cc1ccccc1 [Compound 14] | 12.6 | 20
O=S1(=O)c2ccc(Oc3ccncc3)cc2CN1c1ccccc1 [Compound 26] | > 31.6 | 
O=S1(=O)c2ccc(Oc3cccnc3)cc2CN1c1ccncc1 [Compound 35] | 12.6 | 
O=S1(=O)c2ccc(Oc3ccc(Cl)c(Cl)c3)cc2CN1Cc1ccccc1 [Compound 5] | 1.58 | 
O=S1(=O)c2ccc(Oc3cccnc3)cc2CN1Cc1c(F)cccc1Cl [Compound 7] | 3.98 | 2
O=S1(=O)c2ccc(Oc3cccc(Cl)c3)cc2CN1Cc1ccccc1 [Compound 3] | 0.158 | 3.98
CC(c1ccccc1)N1Cc2cc(Oc3cccnc3)ccc2S1(=O)=O (centres unmarked) [Compound 13] | > 10 | 
O=S1(=O)c2ccc(Oc3ccccn3)cc2CN1c1ccccc1 [Compound 27] | > 31.6 | 
O=S1(=O)c2ccc(Oc3ccccc3)cc2CN1c1ccccc1 [Compound 25] | 1 | 1.26
O=C(O)c1cccc(CN2Cc3cc(Oc4cccnc4)ccc3S2(=O)=O)c1 [Compound 22] | > 31.6 | 
O=C(O)c1ccc(CN2Cc3cc(Oc4cccnc4)ccc3S2(=O)=O)cc1 [Compound 21] | > 31.6 | 
O=S1(=O)c2ccc(Oc3cccnc3)cc2CN1c1cccc(Cl)c1 [Compound 32] | 1.58 | 
O=S1(=O)c2ccc(Oc3cccnc3)cc2CN1Cc1ccncc1 [Compound 20] | 3.16 | 10
O=C1c2ccc(Oc3cccnc3)cc2CN1Cc1ccccc1 [Compound 46] | 6.31 | 10
O=S1(=O)c2ccc(Oc3cccnc3)cc2CN1Cc1c(Cl)cccc1Cl [Compound 6] | > 10 | 
